Several values for one entry are separate records, joined by “and”; a condition that tells them apart may be missing. Identical values can stand only once.
Experiment: In vitro metabolic blocking of HCV NS3/4a protease inhibitors by compound of formula (II) in human liver microsomes
Format: in vitro ADME
Conditions: for % Detected Compound, Incubation time: 30′, Compound of formula (II) / % Detected Compound, Incubation time: 120′, Compound of formula (II): 3 μM test compound + 10 μM compound of formula (II); for % Detected Compound, Incubation time: 30′, Compound of formula (II) / % Detected Compound, Incubation time: 120′, Compound of formula (II) / % Detected Compound, Incubation time: 30′, No Booster / % Detected Compound, Incubation time: 120′, No Booster: human liver microsomes 1 mg/ml, 37° C., % of initial concentration; for % Detected Compound, Incubation time: 30′, Compound of formula (II) / % Detected Compound, Incubation time: 30′, No Booster: 30 min; for % Detected Compound, Incubation time: 120′, Compound of formula (II) / % Detected Compound, Incubation time: 120′, No Booster: 120 min; for % Detected Compound, Incubation time: 30′, No Booster / % Detected Compound, Incubation time: 120′, No Booster: 3 μM test compound
Protocol: Different HCV NS3/4a protease inhibitors were tested in a metabolic blocking experiment using 3 μM test compound together with 10 μM of compound of formula (II) acting as a cytochrome P450 inhibitor (or booster).
Test compounds and compound of formula (II) were added to human liver microsomes (protein concentration 1 mg/ml) suspended in potassium phosphate buffer (pH=7.4), to get final reaction mixture concentrations of 3 μM test compound and 10 μM of compound of formula (II). In the non-boosted parallel reactions, compound of formula (II) was not added. Boiled human liver microsomes were used for blank experiments. After addition (in a 1:3 ratio) of a cofactor mixture consisting of β-nicotinamide adenine dinucleotide phosphate (β-NADP, 0.5 mg/ml, 653.2 μM), D-Glucose-6-phosphate (2 mg/ml, 7.1 mM), Glucose-6-phosphate dehydrogenase (1.5 U/ml) in 2% NaHCO3, the reaction mixture was incubated at 37° C. for 30 or 120 minutes after which the reaction was stopped by increasing the temperature to 95° C. Test compound concentrations were determined using HPLC-MS.
Values are percentages of test compound detected after the indicated incubation times as compared to the initial test compound concentration. In Table 3, each value is the mean of the results of two independent experiments. In Table 4, each value is the result of an independent experiment.

[1] = mean of two independent experiments
[2] = each value one independent experiment

Row | % Detected Compound, Incubation time: 30′, Compound of formula (II) [1] | % Detected Compound, Incubation time: 120′, Compound of formula (II) [1] | % Detected Compound, Incubation time: 30′, No Booster [1] | % Detected Compound, Incubation time: 120′, No Booster [1] | % Detected Compound, Incubation time: 30′, Compound of formula (II) [2] | % Detected Compound, Incubation time: 120′, Compound of formula (II) [2] | % Detected Compound, Incubation time: 30′, No Booster [2] | % Detected Compound, Incubation time: 120′, No Booster [2] | blocking of test compound metabolisation (10 μM compound of formula (II) added to 3 μM test compound, human liver microsomes) | SMILES
1 | 128% | 101% | 16% | 0% | – | – | – | – | – | COc1ccc2c(O[C@@H]3C[C@H]4C(=O)N[C@]5(C(=O)NS(=O)(=O)C6CC6)C[C@H]5/C=C\CCCCCCC(=O)N4C3)cc(-c3nc(C(C)C)cs3)nc2c1 [Compound 26]
2 | 131% | 196% | 42% | 0% | – | – | – | – | – | COc1ccc2c(O[C@@H]3C[C@H]4C(=O)N[C@]5(C(=O)NS(=O)(=O)C6CC6)C[C@H]5/C=C\CCCCCNC(=O)N4C3)cc(-c3nc(C(C)C)cs3)nc2c1 [Compound 18]
3 | – | – | – | – | 43% and 83% | 51% and 95% | 90% and 87% | 89% and 82% | – | COc1ccc2c(O[C@@H]3C[C@H]4C(=O)N[C@]5(C(=O)NS(=O)(=O)C6CC6)C[C@H]5/C=C\CCCCN(C)C(=O)[C@@H]4C3)cc(-c3nc(C(C)C)cs3)nc2c1C [Compound 13]
4 | 151% | 135% | 109% | 25% | – | – | – | – | – | COc1ccc2c(O[C@@H]3C[C@H]4C(=O)N[C@]5(C(=O)NS(=O)(=O)C6CC6)C[C@H]5/C=C\CCCCN(C)C(=O)N4C3)cc(-c3nc(C(C)C)cs3)nc2c1 [Compound 21]

Continued, compound first:

Row | SMILES | % Detected Compound, Incubation time: 30′, Compound of formula (II) [1] | % Detected Compound, Incubation time: 120′, Compound of formula (II) [1] | % Detected Compound, Incubation time: 30′, No Booster [1] | % Detected Compound, Incubation time: 120′, No Booster [1] | % Detected Compound, Incubation time: 30′, Compound of formula (II) [2] | % Detected Compound, Incubation time: 120′, Compound of formula (II) [2] | % Detected Compound, Incubation time: 30′, No Booster [2] | % Detected Compound, Incubation time: 120′, No Booster [2] | blocking of test compound metabolisation (10 μM compound of formula (II) added to 3 μM test compound, human liver microsomes)
5 | COc1ccc2c(O[C@@H]3C[C@H]4C(=O)N[C@]5(C(=O)NS(=O)(=O)C6CC6)C[C@H]5/C=C\CCCCN(C)C(=O)[C@@H]4C3)cc(-c3nc(C(C)C)cs3)nc2c1 [Compound 7] | 166% | 160% | 141% | 48% | – | – | – | – | –
6 | COc1ccc2c(O[C@@H]3C[C@H]4C(=O)N[C@]5(C(=O)O)C[C@H]5/C=C\CCCCC[C@H](NC(=O)OC5CCCC5)C(=O)N4C3)cc(-c3csc(NC(C)C)n3)nc2c1 [BILN-2061, reference compound] | 163% | 128% | 129% | 76% | – | – | – | – | –
7 | CC(C)CN(C[C@H](O)[C@@H](Cc1ccccc1)NC(=O)OCc1cncs1)S(=O)(=O)c1ccc2nc(N)oc2c1 [compound of formula (II)] | – | – | – | – | – | – | – | – | almost complete blocking

Source: patent US20120220520A1, “BIOAVAILABLE COMBINATIONS FOR HCV TREATMENT” (priority 2006, published 2012)
